Peptide text beside a SMILES is read from it.
Tests used:
[1] = system: mTOR, Raptor, RagA, p14; test: APEX2 proximity biotinylation with streptavidin enrichment and immunoblotting in HEK293T cells; format: cell-based; details: for mTOR, Raptor and RagA found in the proximity of the galectin: APEX2-galectin fusions
Description: (A) Analysis of the puncta formation of galectins in response to GPN. HeLa cells overexpressing YFP-fused with the indicated galectins were treated with 100 μM GPN or without (Ctrl) in full medium for 1 h and galectin puncta were quantified by HC. […] White masks, algorithm defined cell boundaries (primary objects); green masks, computer-identified galectins puncta (target objects). Data, means±SEM, n≥3 independent experiments (500 primary objects counted per well; ≥5 wells/sample per each experiment); *p<0.05, **p<0.01, † p≥0.05, ANOVA. (B) Immunoprecipitation analysis of the interactions between galectins and mTOR or RagA GTPase. HEK293T cells overexpressing FLAG-tagged galectins were subjected to anti-FLAG immunoprecipitation followed by immunoblotting for endogenous mTOR or RagA. (C) Immunoprecipitation analysis of interactions between Gal8 and mTOR protein complexes in response to GPN treatment. THP-1 cells not treated or treated with 100 μM GPN in full medium for 1 h were subjected to immunoprecipitation with anti-Gal8 antibody, followed by immunoblotting for endogenous RagA, p14, mTOR or Raptor. (D) Analysis of the proximity of Gal8 to mTOR and other proteins in mTOR complexes in response to GPN. Biotinylated proteins from HEK293T cell expressing APEX2-vector or APEX2-Gal8, after GPN and biotin phenol (BP) treatment were affinity-enriched by binding to streptavidin-beads, and samples were analyzed by immunoblotting analysis for endogenous RagA, p14, mTOR or Raptor. Data, means±SEM, (n=3), **p<0.01, ANOVA. (E) Immunoprecipitation analysis of the interactions between Gal8 and RagA GTPase and its mutants. Lysates of HEK293T cells overexpressing FLAG-Gal8 and HA-tagged RagA proteins (RagAWT, RagAT21L or RagAQ66L) were subjected to anti-FLAG immunoprecipitation, followed by immunoblotting for HA-tagged RagA proteins. (F) Immunoprecipitation analysis of the interactions between Gal8 and RagC GTPase and its mutants. HEK293T cells overexpressing FLAG-Gal8 and HA-tagged RagC proteins (RagCWT, RagCS75L or RagCQ120L) lysates were subjected to anti-FLAG immunoprecipitation, followed by immunoblotting for HA-tagged RagC proteins.
HEK293T cells transfected with pJJiaDEST-APEX2 or pJJiaDEST-APEX2-Gal8 were incubated with 100 μM GPN (Cayman Chemicals) in full medium for 1 h (confluence of cells remained at 70-80%). Cells were next incubated in 500 μM biotin-phenol (AdipoGen) in full medium for the last 30 min of GPN incubation. A 1 min pulse with 1 mM H2O2 at room temperature was stopped with quenching buffer (10 mM sodium ascorbate, 10 mM sodium azide and 5 mM Trolox in Dulbecco's Phosphate Buffered Saline (DPBS)). All samples were washed twice with quenching buffer, and twice with DPBS.
For immunoblotting analysis, cell pellets were lysed with 500 μL ice-cold RIPA lysis buffer (ThermoFisher Scientific) with protease inhibitor cocktail (Roche), 1 mM PMSF (sigma), 10 mM sodium ascorbate, 10 mM sodium azide and 5 mM Trolox, gently pipetted and then the incubated for 30 min. The lysates were clarified by centrifugation at 13,000 rpm for 5 min, followed by measuring protein concentrations using a Pierce BCA Protein Assay kit, with freshly made bovine serum albumin (BSA) solutions as standards. Streptavidin-coated magnetic beads (ThermoFisher Scientific) were washed with RIPA lysis buffer. 3 mg of each sample was mixed with 100 μL of streptavidin beads. […] 15 μL of each sample was separated by SDS-PAGE and analyzed by Western blot using indicated antibodies.

[2] = system: LAMTOR1/p18 and Rag GTPases; test: GST-pulldown assay with in vitro translated proteins; format: binding; details: 35S-methionine labeled
Description: (D) Immunoprecipitation analysis of interactions between Gal8 and Ragulator components p14, p18 and MP1. HEK293T cells overexpressing FLAG-tagged Gal8 were immunoprecipitated/collected with anti-FLAG (beads). Cell lysates and collected immune complexes were blotted for endogenous p18, p14, and MP1. (E)(i-ii) GST pulldown assay with in vitro translated Myc-tagged Gal8 or Gal9 and GST-tagged p18. GST-tagged p18 immobilized on Gluthatione sepharose beads were incubated with in vitro translated Myc-tagged Gal8 or Gal9 radiolabeled with 35S-methionine. Interactions were assessed by autoradiography. Data (% binding), means±SEM, n=3, † p≥0.05, **p<0.01, ANOVA. (F)(i-iv) GST pulldown assay with in vitro translated Myc-tagged Rag proteins and GST-tagged Gal8. […] Interactions were assessed by autoradiography. […]
GST and GST-tagged proteins were produced in SoluBL21 Competent E. coli (Genlantis, C700200) and purified by binding to Glutathionine Sepharose 4 Fast Flow beads (GE Healthcare, 17-5132-01) while myc-tagged proteins were in vitro translated using the TNT T7 Reticulocyte Lysate System (Promega, 14610) in the presence of ^35S-methionine. […] Radioactive signals were detected by Fujifilm bioimaging analyzer BAS-5000 and quantified with ScienceLab ImageGuage software (Fujifilm).

With “Gal8: protein of the galectin family encoded by the gene LGALS8; beta-galactoside-binding lectin” the “mTOR, Raptor and RagA found in the proximity of the galectin” value [1] was “in the proximity” and the “direct binding to Ragulator (LAMTOR1/p18) and Rag GTPases in GST-pulldown” value [2] was “direct interactions”.
In the case of `NCC(=O)N[C@@H](Cc1ccccc1)C(=O)Nc1ccc2ccccc2c1` [GPN, glycyl-L-phenylalanine 2-naphththylamide] (HELM PEPTIDE1{G.F.[c1ccc2cc(N[*:1])ccc2c1]}$$$$V2.0), the “proximity of Gal8 to Ragulator (LAMTOR2/p14) and RagA” value ([1]; APEX2-Gal8 HEK293T, GPN) is reported as “increased proximity” and the “proximity of Gal8 to mTOR and Raptor” value ([1]; APEX2-Gal8 HEK293T, GPN) is reported as “decreased proximity”.
With “Gal9: beta-galactoside-binding lectin protein of the galectin family” the “mTOR, Raptor and RagA found in the proximity of the galectin” value [1] was “not in the proximity” and the “direct binding to Ragulator (LAMTOR1/p18) and Rag GTPases in GST-pulldown” value [2] was “did not show direct binding”.

— patent publication US20210069295A1, “GALECTINS CONTROL MTOR IN RESPONSE TO ENDOMEMBRANE DAMAGE AND PROVIDE A MECHANISM AND TARGET FOR THE TREATMENT OF AUTOPHAGY-RELATED DISEASES” (STC. UNM, priority 2017, published 2021)
